Laboratory results as given in patent US9169255B2, “Caffeinated compounds and compositions for treatment of amyloid diseases and synucleinopathies” (ProteoTech Inc, priority 2011, dated 2015).

Columns and labels:
Type in all cases: biochemical
α-synuclein fibrils = molecular target: T1, α-synuclein fibrils (Homo sapiens, UniProt P37840); assay: Thioflavin T fluorometry, disruption of pre-formed α-synuclein fibrils; conditions: 2-day incubation
T1 construct: purchased rPeptide, Bogart, Calif
Protocol: In this set of studies, the efficacy of certain compounds provided herein to cause a disassembly/disruption/disaggregation of pre-formed fibrils of Parkinson's disease (i.e. consisting of α-synuclein fibrils) was analyzed. For the studies described below in Parts A and B, 69 μM of α-synuclein (rPeptide, Bogart, Calif.) was first incubated at 37° C. for 4 days in 20 mM sodium acetate buffer at pH 4 with circular shaking (1,300 rpm) to cause α-synuclein aggregation and fibril formation.
In one study, Thioflavin T fluorometry was used to determine the effects of the compounds on α-synuclein fibrils. […] In this assay Thioflavin T binds specifically to fibrillar protein, and this binding produces a fluorescence enhancement at 485 nm that is directly proportional to the amount of fibrils formed.
Following initial α-synuclein fibrilization as described above, the α-synuclein (6.9 μM) mixture was then incubated at 37° C. for 2 days with shaking (200 rpm), either alone, or in the presence of one of the compounds (at test compound:α-synuclein molar ratios of 10:1, 1:1, 0.1:1, and 0.01:1) in phosphate-buffered saline, pH 7.4+0.02% sodium azide. Following 2 days of co-incubation, 50 μl (5 μg) of each incubation mixture was transferred into a 96-well microtiter plate containing 150 μl of distilled water and 50 μl of a Thioflavin T solution (i.e. 500 μM Thioflavin T in 250 mM phosphate buffer, pH 6.8). The final concentration of Thioflavin T reagent is 100 μM in 50 mM phosphate buffer, pH 6.8. The fluorescence was read at 485 nm (444 nm excitation wavelength) using an ELISA plate fluorometer. Subtraction of the signal obtained from a diluted reaction (blank) containing buffer alone or compound alone at a concentration equivalent to that of its corresponding α-synuclein-containing reaction was used to quantitate the amount of Thioflavin T fluorescence in each α-synuclein-containing reaction that is proportional to the protein fibril content in that reaction.

Aβ 1-42 [1] = molecular target: T2, Aβ 1-42 (Homo sapiens, UniProt P05067); assay: Circular dichroism (CD) spectroscopy, inhibition of β-sheet formation of Aβ; conditions: for magnitude of the change of the ellipticity minimum at 218 nm relative to Aβ alone: 24 hours of incubation, at appropriate concentrations; for Circular Dichroism Spectroscopy -% Inhibition: 24 hours
T2 sequence (P05067 672-713 limits assumed): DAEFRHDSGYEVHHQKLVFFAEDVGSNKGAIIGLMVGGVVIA
Protocol: For this purpose, the Aβ reactions that were used in the Thioflavin T fluorometry assay (Part A in this Example) were assessed at 24 hours of aggregation. Aβ alone was also assessed by CD spectral analysis at t=0, prior to aggregation, (t=0, unfolded reference control). After 24 hours, reactions were diluted 20-fold in PBS and a CD spectrum for each reaction was acquired on a Jasco J-810 spectropolarimeter using a 0.1 cm path length cell. All spectra were recorded with a step size of 0.1 nm, a bandwidth of 1 nm, and an Aβ concentration of 0.05 mg/ml. The spectra were trimmed at the shortest wavelength that still provided a dynode voltage less than 600V. The trimmed spectra were then subjected to a data processing routine beginning with noise reduction by Fourier transform followed by subtraction of a blank spectrum (vehicle only without Aβ). These blank corrected spectra were then zeroed at 260 nm and the units converted from millidegrees to specific ellipticity.
Percent β-sheet was determined from processed spectra using the ellipticity minimum value at approximately 218 nm and referencing to a scale normalized to nearly fully folded and unfolded reference values, consistent with previous reports (Ramirez-Alvarado et al., J. Mol. Biol., 273:898-912, 1997; Andersen et al., J. Am. Chem. Soc., 121:9879-9880, 1999). The fully folded reference value was found by performing the described calculation on the spectrum of Aβ fibrillized for 24 hours (complete fibrillization), and assigning this difference the arbitrary value of 100% β-sheet. The unfolded reference was provided by the spectrum from the same sample at the initial time point (t=0) and ascribing the difference found here the arbitrary value of 0% β-sheet. These percent β-sheet values were then used to provide the respective relative % inhibition of β-sheet induced by the compounds at given molar ratio of test compound:Aβ.

Aβ 1-42 [2] = molecular target: T2, Aβ 1-42; assay: Thioflavin T fluorometry, inhibition of β-sheet formation of non-fibrillar Aβ 1-42; set-up: pre-fibrillized human Aβ 1-42 (rPeptide); purchased rPeptide; conditions: for Thioflavin T fluorometry-% Inhibition: 24 hours
Protocol: To test whether the compounds can inhibit β-sheet formation of Aβ, the same assay as described in Example 5 was utilized, but the Aβ was prepared so that it is in a non-fibrillar state at the start of the assay. To achieve this non-fibrillar state, lyophilized human Aβ 1-42 (rPeptide) was dissolved to 1 mg/mL (220 μM) using 2 mM NaOH and the pH was adjusted to 10.5 with small (μL) additions of 1M NaOH. The clear solution was then frozen, re-lyophilized, and dissolved in a buffer containing 9.5 mM phosphate, 137 mM sodium chloride and 2.7 mM potassium chloride (phosphate-buffered saline; PBS) to a concentration of 2 mg/mL (440 μM) Aβ. […] The reactions containing Aβ+test compounds (or Aβ+PBS as a control for Aβ aggregation) were then incubated for 24 hours, the incubation mixtures were diluted 1:20 to 0.05 mg/mL Aβ and 50 μL of each diluted incubation mixture was transferred into a 96-well microtiter plate containing 150 μL of distilled water and 50 μL of a Thioflavin T solution (i.e. 500 μM Thioflavin T in 250 mM phosphate buffer, pH 6.8). The final concentration of Aβ was 2.2 μM and the concentration of Thioflavin T reagent was 100 μM in 50 mM phosphate buffer, pH 6.8. The fluorescence was read at 485 nm (444 nm excitation wavelength) using an ELISA plate fluorometer after subtraction with PBS buffer alone or compound alone, as blank.

[3] = compound:peptide molar ratio 0.01:1
[4] = compound:peptide molar ratio 0.1:1
[5] = compound:peptide molar ratio 1:1
[6] = compound:peptide molar ratio 10:1

| Molecule | Thioflavin T fluorometry-% Inhibition (α-synuclein fibrils; [3]) [%] | Thioflavin T fluorometry-% Inhibition (α-synuclein fibrils; [4]) [%] | Thioflavin T fluorometry-% Inhibition (α-synuclein fibrils; [5]) [%] | Thioflavin T fluorometry-% Inhibition (α-synuclein fibrils; [6]) [%] | magnitude of the change of the ellipticity minimum at 218 nm relative to Aβ alone (Aβ 1-42 [1]) | Circular Dichroism Spectroscopy -% Inhibition (Aβ 1-42 [1]; compound:Aβ molar ratio 0.5:1) [%] | Circular Dichroism Spectroscopy -% Inhibition (Aβ 1-42 [1]; compound:Aβ molar ratio 1:1) [%] | Circular Dichroism Spectroscopy -% Inhibition (Aβ 1-42 [1]; compound:Aβ molar ratio 5:1) [%] | Circular Dichroism Spectroscopy -% Inhibition (Aβ 1-42 [1]; compound:Aβ molar ratio 10:1) [%] | Thioflavin T fluorometry-% Inhibition (Aβ 1-42 [2]; compound:Aβ molar ratio 5:1) [%] | Thioflavin T fluorometry-% Inhibition (Aβ 1-42 [2]; compound:Aβ molar ratio 10:1) [%] | inhibition of β-sheet formation in Aβ (CD) (Aβ 1-42 [1]; test compound:Aβ molar ratios ≧5:1) | Thioflavin T fluorometry-% Inhibition (Aβ 1-42 [2]; compound:Aβ molar ratio 1:1) [%] | inhibition of Aβ aggregation (Thioflavin T fluorometry) (Aβ 1-42 [2]; concentrations tested 50:1, 10:1 and 1:1) |
| --- | --- | --- | --- | --- | --- | --- | --- | --- | --- | --- | --- | --- | --- | --- |
| Cn1c(=O)c2c(ncn2Cc2ccc(O)c(O)c2)n(Cc2ccc(O)c(O)c2)c1=O [PD-152] | 0 | 4 | 52 | 86 | reduced | 26 | 42 | 35 | 57 | 23 | 61 |  |  |  |
| Cn1cnc2c1c(=O)n(Cc1ccc(O)c(O)c1)c(=O)n2Cc1ccc(O)c(O)c1 [PD-150, 7-Methyl-1,3-bis(3′,4′-dihydroxy)benzylxanthine] | 0 | 0 | 48 | 84 | reduced | 40 | 42 | 69 | 62 |  | 93 | at least 62% | 23 |  |
| Cn1c(=O)n(Cc2ccc(O)c(O)c2)c(=O)c2c1ncn2Cc1ccc(O)c(O)c1 [PD-151, 3-Methyl-1,7-bis(3′,4′-dihydroxybenzyl)xanthine] | 4 | 15 | 56 | 89 | reduced | 38 | 43 | 66 | 67 |  | 87 |  | 9 |  |
| Cn1c(=O)c2c(ncn2C)n(C)c1=O [Caffeine, reference compound] |  |  |  |  | no effect |  |  |  |  |  |  |  |  | failed to inhibit |
| 1,3-dimethyl-7-(3′,4′-dibenzyloxy)benzyl-8-(3′,4′-dihydroxyphenyl)xanthine [PD-154] | 7 | 10 | 25 | 43 |  |  |  |  |  | 0 | 33 |  |  |  |
| Cn1c(=O)c2c(nc(-c3ccc(O)c(O)c3)n2C)n(C)c1=O [PD-153, 1,3,7-trimethyl-8-(3′,4′-dihydroxyoxyphenyl)xanthine] | 7 | 17 | 18 | 37 | reduced |  |  | 8 | 24 |  |  |  |  |  |
